Results: the supplement of paper PMC13380429

Key:
Settings in all cases: 72 h
[1] = system: Caco-2; test: cell viability relative to DMSO; higher = less toxic
[2] = system: Calu-3; test: as above
[3] = system: HepG2; test: as above
[4] = system: U2OS; test: as above
[5] = system: Vero E6; test: as above
[6] = system: Caco-2; test: relative viability EC50 (midpoint between 100% and the lowest measured viability); higher = less toxic
[7] = system: Calu-3; test: as above
[8] = system: HepG2; test: as above
[9] = system: U2OS; test: as above
[10] = system: Vero E6; test: as above
[11] = system: Caco-2; test: drug sensitivity score (DSS) for viability; higher = more toxic; extreme values may be limits of the assay
[12] = system: Calu-3; test: as above
[13] = system: HepG2; test: as above
[14] = system: U2OS; test: as above
[15] = system: Vero E6; test: as above

SMILES | cell viability ([1]; 1 nM) [%] | cell viability ([1]; 10 nM) [%] | cell viability ([1]; 100 nM) [%] | cell viability ([1]; 1000 nM) [%] | cell viability ([1]; 10000 nM) [%] | cell viability ([2]; 1 nM) [%] | cell viability ([2]; 10 nM) [%] | cell viability ([2]; 100 nM) [%] | cell viability ([2]; 1000 nM) [%] | cell viability ([2]; 10000 nM) [%] | cell viability ([3]; 1 nM) [%] | cell viability ([3]; 10 nM) [%] | cell viability ([3]; 100 nM) [%] | cell viability ([3]; 1000 nM) [%] | cell viability ([3]; 10000 nM) [%] | cell viability ([4]; 1 nM) [%] | cell viability ([4]; 10 nM) [%] | cell viability ([4]; 100 nM) [%] | cell viability ([4]; 1000 nM) [%] | cell viability ([4]; 10000 nM) [%] | cell viability ([5]; 1 nM) [%] | cell viability ([5]; 10 nM) [%] | cell viability ([5]; 100 nM) [%] | cell viability ([5]; 1000 nM) [%] | cell viability ([5]; 10000 nM) [%] | relative viability EC50 [6] [µM] | relative viability EC50 [7] [µM] | relative viability EC50 [8] [µM] | relative viability EC50 [9] [µM] | relative viability EC50 [10] [µM] | drug sensitivity score [11] | drug sensitivity score [12] | drug sensitivity score [13] | drug sensitivity score [14] | drug sensitivity score [15]
NC(=O)c1ccc(N(C(N)=O)c2c(F)cccc2F)nc1-c1ccc(F)cc1F [VX-702] | 102 | 89.9 | 103 | 85.6 | 88.4 | 101 | 94.4 | 94 | 95.4 | 87.8 | 101 | 109 | 91.9 | 110 | 108 | 97.8 | 96.2 | 96.8 | 92.6 | 94.4 | 92.7 | 105 | 88.5 | 89.1 | 89.1 | > 10 | > 10 | > 10 | > 10 | > 10 | 1.1 | 0 | 0 | 0 | 0.7
C[C@H](CCC(=O)O)[C@H]1CC[C@H]2[C@@H]3CC[C@@H]4C[C@H](O)CC[C@]4(C)[C@H]3C[C@H](O)[C@]12C [deoxycholic-acid] | 102 | 97.5 | 98.5 | 105 | 90 | 103 | 93.9 | 103 | 102 | 102 | 105 | 112 | 90.9 | 102 | 97.5 | 96.8 | 99.2 | 98.7 | 99.8 | 98.2 | 99.5 | 103 | 102 | 106 | 101 | > 10 | > 10 | > 10 | > 10 | > 10 | 0 | 0 | 0 | 0 | 0
FC(F)(F)c1cccc(-c2noc(-c3cc(-c4ccccc4)c(C(F)(F)F)s3)n2)c1 [SEW-2871] | 103 | 104 | 102 | 99.8 | 108 | 93.2 | 91.1 | 99.9 | 93.3 | 98.5 | 102 | 103 | 93.9 | 100 | 99 | 93.7 | 99.1 | 96 | 102 | 102 | 101 | 98 | 97.4 | 90.7 | 110 | > 10 | > 10 | > 10 | > 10 | > 10 | 0 | 0 | 0 | 0 | 0
Nc1c(CC(=O)O)cccc1C(=O)c1ccc(Br)cc1 [bromfenac] | 88.1 | 94.3 | 93.4 | 95.7 | 101 | 95.7 | 97 | 104 | 84.2 | 97.7 | 96.3 | 97.4 | 97.2 | 104 | 104 | 100 | 98.6 | 103 | 99.4 | 96 | 95.4 | 103 | 98.1 | 97.3 | 105 | > 10 | > 10 | > 10 | > 10 | > 10 | 0 | 0 | 0 | 0 | 0
